The text below walks through data of PubChem BioAssay AID1996.

Usually solubility (kinetic) stands for solubility judged after dilution from a stock solution rather than from solid.

≈ marks a conversion by molar mass, not a printed value.

The conditions of the data set: buffer; pH 7.4; 200.0 µM.
On to `O=C(NCCc1ccc(Cl)cc1)C1CCCO1` (centres undefined), for which the kinetic solubility is greater than 38.1 µg/mL.

In the case of `O=C(Nc1cscc1S(=O)(=O)c1ccc(Cl)cc1)c1ccccc1Cl`, the solubility (kinetic) came out at 2.6 µg/mL (≈ 6.31 µM). In turn, `Cc1ccc(NC(=O)Nc2cccc(C)n2)c(C)c1` gave a kinetic solubility of less than 0.2 µg/mL.

The molecule `CS(=O)(=O)O.c1cnc(N2CCN(Cc3ccc4c(c3)OCO4)CC2)nc1` had a solubility (kinetic) greater than 59.2 µg/mL. For `O=C1NCCSC1c1ccccc1` (centres undefined) the value was greater than 29 µg/mL; for `O=C(c1cc(Cl)nc2ccccc12)N1CCc2ccccc2C1`, 34.5 µg/mL (≈ 107 µM); for `CC(C)Cn1c(S(=O)(=O)O)nc2ccccc21`, greater than 38.1 µg/mL.

The molecule `Cc1cccc(Nc2nc(N)nc(CCl)n2)c1` displayed a kinetic solubility greater than 37.5 µg/mL. Molecule `O=C1CN(C(=O)COC(=O)c2ccc([N+](=O)[O-])s2)c2ccccc2N1` came in with a solubility (kinetic) of 9.3 µg/mL (≈ 25.7 µM). The value for `CCOc1ccc(CCNC(=O)c2ccc(=O)[nH]c2)cc1OCC` was greater than 49.6 µg/mL; that for `O=C1Nc2ccccc2C1=Nc1ccc(Cl)cc1` was 13.5 µg/mL (≈ 52.6 µM). For `CCOC(=O)N1CCN(S(=O)(=O)c2ccc([N+](=O)[O-])cc2)CC1` the value was 36.9 µg/mL (≈ 107 µM); for `CC(C)CNC(=O)C(=O)NCC1OCCCN1S(=O)(=O)c1cccs1` (centres undefined), greater than 58.4 µg/mL. Turning to `CCOc1ccc2[nH]c3c(NCC(C)C)ncnc3c2c1`, the kinetic solubility came to 5.1 µg/mL (≈ 17.9 µM). `CCOC(=O)C1CCN(C(=O)COC(=O)CSc2ccccc2C)CC1` returned a kinetic solubility greater than 56.9 µg/mL. The value for `Cc1cc(OCC(=O)OCC(=O)NCc2cccs2)ccc1Cl` was 14 µg/mL (≈ 39.6 µM). For `O=C(CN1C(=O)C2CCCCC2C1=O)Nc1ccccc1C(=O)O` (centres undefined) the value was greater than 49.6 µg/mL; for `O=C(O)CSCc1nc2scc(-c3ccccc3)c2c(=O)[nH]1`, greater than 49.9 µg/mL. The value for `O=c1sc2ccccc2c(N2CCCC2)c1[N+](=O)[O-]` was greater than 41.4 µg/mL; that for `O=C(c1ccccc1)C1CCN(C(=O)c2ccco2)CC1` was 41.6 µg/mL (≈ 147 µM).

`CCCN(C(=O)c1cn(C)c(=O)c2ccccc12)c1ccccc1C` registered a kinetic solubility greater than 50.2 µg/mL. In the case of `Cc1oncc1C(=O)NC1CCCCC1`, the kinetic solubility was greater than 31.2 µg/mL. The value for `C(=N\Nc1nc2ccccc2[nH]1)/C1CCCCC1` was greater than 36.3 µg/mL; that for `COc1ccc(C2CC(=O)C=C(NCc3ccccc3)C2)cc1` (centres undefined) was 14.2 µg/mL (≈ 46.2 µM); that for `N#Cc1ccc(-c2nc3ccc(Br)cc3c(=O)n2O)cc1` was 18.1 µg/mL (≈ 52.9 µM). The value for `O=C(O)CC(CC(=O)Nc1ccccc1C(=O)O)c1ccccc1` (centres undefined) was greater than 49.1 µg/mL; that for `C/C(=N/OC(=O)CC(C)C)c1cc(-c2ccc(Cl)cc2)no1` was less than 0.3 µg/mL. For `COc1ccccc1CC(=O)NCCc1c[nH]c2ccccc12` the value was 44.9 µg/mL (≈ 146 µM); for `COc1cccc(NC(=O)COC(=O)CC2CC3CCC2C3)c1` (centres undefined), 24.1 µg/mL (≈ 75.9 µM); for `Cc1ccc(NC(=O)CCOc2ccccc2)c(C)c1`, 20.2 µg/mL (≈ 75 µM). `COC(=O)c1ccc(COC(=O)CNC(=O)c2ccc(OC)cc2)cc1` displayed a solubility (kinetic) of 17.3 µg/mL (≈ 48.4 µM). This solubility kinetic and that of the molecule before are within 1.5-fold of each other. For `Cc1nc(-c2ccc(S(=O)(=O)NCc3ccccn3)s2)cs1` the value was greater than 52.7 µg/mL; for `O=C1N(CCCl)c2ccc(Br)cc2C12OCCO2`, 48.1 µg/mL (≈ 145 µM); for `CCOc1ccc(NC(=O)CN(C)C(=O)c2ccncc2)cc1OCC`, greater than 53.6 µg/mL.

`COCCN(CCOC)S(=O)(=O)c1ccc(Cl)nc1` had a kinetic solubility of 45.3 µg/mL (≈ 147 µM). For `O=C(COC(=O)c1ccccc1Br)NCC1CCCCC1`, the solubility (kinetic) turned out to be 38.1 µg/mL (≈ 108 µM).

Molecule `NC(=O)CSc1ccc(S(=O)(=O)N2CCCCC2)cn1` showed a solubility (kinetic) of 44.6 µg/mL (≈ 141 µM). The solubility kinetic values of the last two molecules are within 1.5-fold of each other. The value for `CC(C)(C)OC(=O)N1CCCN(C(=O)Nc2cccc(Cl)c2)CC1` was 51.4 µg/mL (≈ 145 µM); that for `CCOc1ccccc1N(CC(=O)N1CCCC1)S(C)(=O)=O` was greater than 49 µg/mL; that for `Cc1cc(Cl)nc(Cl)c1C(=O)NCc1ccc(Cl)cc1` was 6.8 µg/mL (≈ 20.6 µM).

`O=S(=O)(c1cccc(-c2n[nH]c(=S)n2-c2ccccc2Cl)c1)N1CCOCC1` registered a kinetic solubility greater than 65.5 µg/mL. Regarding `CCc1ccc2c(CN3CCOCC3)cc(=O)oc2c1`, the kinetic solubility is greater than 41 µg/mL.

With `Cc1ccc(NC(=O)CNC(=O)c2ccc(C)o2)cc1`, the solubility (kinetic) was greater than 40.8 µg/mL.

In turn, `O=C(NCCNC(=O)c1ccc(Cl)cc1Cl)c1cnccn1` returned a solubility (kinetic) of 37 µg/mL (≈ 109 µM). The value for `CCc1ccccc1N1CN(Cc2ccco2)CNC1=S` was greater than 45.2 µg/mL; that for `CCOC(=O)N1CCN(CCCc2ccccc2)CC1` was 30.9 µg/mL (≈ 112 µM); that for `CC(=O)NCC1COc2ccccc2O1` (centres undefined) was greater than 31.1 µg/mL. The value for `COc1cc(C=O)cc(Cl)c1OC(=O)N1CCOCC1` was 39.5 µg/mL (≈ 132 µM); that for `O=C(Nc1cccnc1Cl)c1cccc(S(=O)(=O)N2CCOCC2)c1` was greater than 57.3 µg/mL; that for `COc1ccccc1NC(=O)CNC(=O)CC12CC3CC(CC(C3)C1)C2` was 43.1 µg/mL (≈ 121 µM). For `COCCNC(=O)CSc1ccccc1C(=O)O` the value was greater than 40.4 µg/mL.

For the molecule `CCCCNC(=O)c1cc2c(C)cc(C)cc2[nH]1`, the solubility (kinetic) turned out to be 2.2 µg/mL (≈ 9 µM).

`Cc1ccc(NC(=O)c2c(C)noc2C)cc1S(=O)(=O)N1CCOCC1` came in with a solubility (kinetic) greater than 56.9 µg/mL. The value for `CCCOc1cccc(C(=O)NCCNC(=O)c2cnccn2)c1` was 48 µg/mL (≈ 146 µM); that for `Cl.Clc1cccc(Cl)c1CSc1nnc([C@@H]2CCCN2)o1` was greater than 55 µg/mL; that for `CN1CCN(c2oc(/C=C/c3ccccc3)nc2C#N)CC1` was 40.3 µg/mL (≈ 137 µM). For `CC(C)n1c(NCc2ccc(Cl)cc2)nc2ccccc21` the value was 0.7 µg/mL (≈ 2.33 µM).

`COC(=O)c1cc2c(=O)c3ccccc3oc2nc1C` registered a kinetic solubility of 5.4 µg/mL (≈ 20.1 µM). For `CCOC(=O)c1ccc(NC(=O)NC2CC3CCC(C2)N3)cc1` (centres undefined) the value was 43.5 µg/mL (≈ 137 µM); for `CCc1c(C)nc(SCC(=O)N2CCCCC2CC)[nH]c1=O` (centres undefined), 44.6 µg/mL (≈ 138 µM). The value for `CC(C(=O)Nc1ccc2c(c1)OCO2)N(C)CC(=O)Nc1ccccc1Cl` (centres undefined) was greater than 58.5 µg/mL; that for `Cc1csc(NC(=O)CS(=O)(=O)c2ccccc2)n1` was 44.3 µg/mL (≈ 149 µM); that for `O=C(COC(=O)c1cncc(Br)c1)NC1CCCC1` was greater than 49.1 µg/mL. `CN(CC(=O)Nc1cccc(F)c1)C(=O)c1sc2ccccc2c1Cl` returned a solubility (kinetic) of 23 µg/mL (≈ 61 µM). For `CCCOc1ccc2ccccc2c1/C=C1\SC(=O)NC1=O` the value was greater than 47 µg/mL. Molecule `O=C(Nc1ccccc1F)Nc1cccnc1Cl` yielded a solubility (kinetic) of 7.8 µg/mL (≈ 29.4 µM). For `Cc1cccc(Nc2nc(N3CCOCC3)nc(N3CCOCC3)n2)c1` the value was 34.9 µg/mL (≈ 97.9 µM); for `Cc1ccccc1-n1c(=S)[nH]c2nc3c(cc2c1=O)COC(C)(C)C3`, 30.7 µg/mL (≈ 86.9 µM). The value for `CCC(=O)c1cn(CC(=O)Nc2ccc(C)cc2)c2ccccc12` was less than 0.3 µg/mL; that for `CCOc1ccc2nc(NC(=O)c3ccc(C)o3)sc2c1` was 0.6 µg/mL (≈ 1.98 µM). The value for `N#Cc1cc(N2CCOCC2)nc2ccccc12` was 15.3 µg/mL (≈ 63.9 µM). Molecule `O=[N+]([O-])c1ccccc1OCCN1CCCC1` yielded a kinetic solubility of 25.5 µg/mL (≈ 108 µM).

On to `Cc1ccc(S(=O)(=O)N2CCN(C(=O)COC(=O)/C=C/c3ccc([N+](=O)[O-])cc3)CC2)c(C)c1`, for which the solubility (kinetic) was 1.9 µg/mL (≈ 3.9 µM). The value for `CCCNC(=O)Cc1c(C)oc2ccccc12` was greater than 34.7 µg/mL; that for `COCC(C)NC(=O)c1ccc2nc(-c3ccccc3)c(-c3ccccc3)nc2c1` (centres undefined) was 5.3 µg/mL (≈ 13.3 µM); that for `Brc1ccc(-c2noc(-c3ccccc3)n2)o1` was less than 0.3 µg/mL. The value for `Cc1c(-c2ccc(Cl)cc2)[n+](=O)c(-c2ccccc2)cn1[O-]` was greater than 46.9 µg/mL; that for `Cc1ccc(CNCCCSc2ncccn2)cc1` was 36.3 µg/mL (≈ 133 µM); that for `C/C(=N\NC=O)c1ccncc1` was greater than 24.5 µg/mL. In turn, `Cc1c(NS(=O)(=O)c2cccc(C(=O)N3CCC(C(N)=O)CC3)c2)c(=O)n(-c2ccccc2)n1C` returned a kinetic solubility greater than 74.6 µg/mL. For `O=C(CSc1nncn1-c1ccccc1F)NC1CC1` the value was greater than 43.8 µg/mL. As to `CCOc1ccc(NC(=O)N[C@@H](Cc2ccccc2)C(=O)O)cc1`, the solubility (kinetic) is greater than 49.3 µg/mL.

As to `COc1ccc(CNC(=S)NCc2ccc(Cl)cc2)cc1OC`, the kinetic solubility amounted to 35 µg/mL (≈ 99.8 µM). The value for `CC(OC(=O)CN1C(=O)c2ccccc2C1=O)C(=O)NC1CCCC1` (centres undefined) was greater than 51.7 µg/mL; that for `COc1ccccc1C(=O)NCCNc1ccc([N+](=O)[O-])cc1Cl` was 0.7 µg/mL (≈ 2 µM). For `S=C(NCc1cccnc1)Nc1ccc2c(c1)OCO2` the value was greater than 43.1 µg/mL.

Regarding `COc1ccc(OC)c(NC(=O)CCCc2ccccc2)c1`, the kinetic solubility was found to be 24.5 µg/mL (≈ 81.8 µM).

Turning to `O=C(COC(=O)c1cc(S(=O)(=O)Nc2ccccc2Cl)ccc1O)Nc1ccc(F)c(F)c1F`, the kinetic solubility was found to be 10 µg/mL (≈ 19.4 µM). Against the preceding molecule, the solubility kinetic is about 2.5-fold lower. Turning to `O=C(Nc1nccs1)c1ccc[nH]c1=O`, the kinetic solubility was greater than 33.2 µg/mL. For `C/C=C(\C)CN1CCCC(CO)(Cc2ccccc2)C1` (centres undefined), the kinetic solubility came to 34.3 µg/mL (≈ 125 µM). For `CCCn1c(=O)[nH]c(=O)c2[nH]cnc21` the value was greater than 29.1 µg/mL; for `Cc1[nH]n(-c2ccccc2)c(=O)c1/C=N/NC(=O)c1cccc(F)c1`, greater than 50.8 µg/mL. The value for `Cc1ccccc1CC(=O)Nc1ccon1` was 30.3 µg/mL (≈ 140 µM).

As for `CCN1C(=O)CS/C1=N\S(=O)(=O)c1ccccc1`, the kinetic solubility is greater than 42.7 µg/mL.

As to `Cl.OC(CN1CCNCC1)Cn1c2ccccc2c2ccccc21` (centres undefined), the kinetic solubility was 54.4 µg/mL. The value for `CC1CCc2cc(F)ccc2N1S(=O)(=O)c1ccc(F)cc1` (centres undefined) was 2.4 µg/mL (≈ 7.42 µM); that for `O=C1OCCN/C1=C\C(=O)c1ccc(Cl)cc1` was greater than 37.8 µg/mL; that for `CCOc1ccccc1N=CC1=C(O)CC(c2ccccc2)CC1=O` (centres undefined) was 3.4 µg/mL (≈ 10.1 µM). For `CN1C(=O)c2ccc(C(=O)Nc3cccnc3)cc2C1=O` the value was greater than 42.2 µg/mL. Molecule `CN1CCCN(C(=O)CNC(=O)c2ccccc2F)CC1` had a kinetic solubility greater than 44 µg/mL. `COc1cccc(OC)c1C(=O)Nc1ccc2nc(C)c(C)nc2c1` came in with a kinetic solubility of 4.5 µg/mL (≈ 13.3 µM). For `Cc1cccc2c3c([nH]c12)CCN(C)C3` the value was greater than 30 µg/mL; for `COc1ccc(-c2nc3ncccc3o2)cc1NC(=O)c1cccs1`, 0.3 µg/mL (≈ 0.854 µM); for `Cc1ccc(C)c(S(=O)(=O)NCCCN2CCOCC2)c1`, greater than 46.9 µg/mL.
